Test results reported in patent US11814367B2, “Inhibitors of glycogen synthase 1 (GYS1) and methods of use thereof” (Maze Therapeutics, Inc., priority 2021, dated 2023).

Assays:
[1] = target: hGYS2 enzyme (recombinant hGYS2/GN1 protein) (Homo sapiens (Human), UniProt P54840); assay: GYS2 coupled enzyme assay (PK/LDH); format: biochemical; settings: geometric mean of at least 2 assay runs on separate days, read-out: Avg_IC50
In short: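 IC50 came from Hill fits of duplicate percent inhibition, based on control-normalized slopes of 340 nm NADH decline read each minute for 10 min. The reaction held recombinant hGYS2/GN1 (200 nM) with glycogen, UDP-glucose, G6P and PEP, plus PK/LDH coupling at pH 7.5 and 2.5% DMSO.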

[2] = target: hGYS1 enzyme (recombinant hGYS1/GN1 protein) (Homo sapiens (Human), UniProt P13807); assay: GYS1 coupled enzyme assay (PK/LDH); format: biochemical; settings: hGYS1/GN1 50 nM, UDP-Glucose 0.8 mM, G6P 1 mM; geometric mean of at least 2 runs
Sequence of hGYS1 enzyme (recombinant hGYS1/GN1 protein) (P13807 whole entry): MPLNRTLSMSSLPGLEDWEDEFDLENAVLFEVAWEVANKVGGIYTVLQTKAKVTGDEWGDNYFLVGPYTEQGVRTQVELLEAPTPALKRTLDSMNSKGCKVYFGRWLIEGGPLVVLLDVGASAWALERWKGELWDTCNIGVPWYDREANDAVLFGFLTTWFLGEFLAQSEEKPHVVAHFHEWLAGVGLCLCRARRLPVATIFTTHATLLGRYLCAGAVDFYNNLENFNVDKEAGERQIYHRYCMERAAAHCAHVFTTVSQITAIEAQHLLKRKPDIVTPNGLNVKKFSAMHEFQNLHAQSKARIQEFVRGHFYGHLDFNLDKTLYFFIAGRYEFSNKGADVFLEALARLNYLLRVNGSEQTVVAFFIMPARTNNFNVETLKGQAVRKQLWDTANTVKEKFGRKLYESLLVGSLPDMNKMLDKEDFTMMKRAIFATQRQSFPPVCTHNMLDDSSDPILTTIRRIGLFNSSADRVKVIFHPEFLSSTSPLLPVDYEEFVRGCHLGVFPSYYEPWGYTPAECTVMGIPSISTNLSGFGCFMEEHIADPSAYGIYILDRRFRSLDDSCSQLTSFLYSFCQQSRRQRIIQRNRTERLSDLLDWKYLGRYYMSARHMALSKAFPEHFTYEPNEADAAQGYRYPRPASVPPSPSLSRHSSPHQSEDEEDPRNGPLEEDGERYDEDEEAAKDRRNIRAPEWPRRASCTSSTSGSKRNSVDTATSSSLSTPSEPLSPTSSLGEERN
Sequence of hGYS1 enzyme (recombinant hGYS1/GN1 protein) (P46976 whole entry partner): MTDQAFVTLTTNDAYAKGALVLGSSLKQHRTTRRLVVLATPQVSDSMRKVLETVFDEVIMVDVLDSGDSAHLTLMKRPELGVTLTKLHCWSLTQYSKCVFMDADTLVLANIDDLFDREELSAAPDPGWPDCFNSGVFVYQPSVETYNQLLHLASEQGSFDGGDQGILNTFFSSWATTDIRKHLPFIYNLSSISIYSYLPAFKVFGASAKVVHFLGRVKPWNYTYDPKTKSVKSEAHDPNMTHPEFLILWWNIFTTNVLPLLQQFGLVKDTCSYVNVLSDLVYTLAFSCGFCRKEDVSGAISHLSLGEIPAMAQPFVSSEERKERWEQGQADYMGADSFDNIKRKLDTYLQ

[3] = test system: hGYS1 enzyme / glycogen synthesis in HeLa cells; assay: GYS1 cell based assay (glycogen synthesis, Glucose-glo); parameters: species or system human; settings: 24 h incubation, 20 mM glucose, geometric mean of at least 2 runs
In short: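 HeLa cells starved 24 h in medium containing only 1× Glutamax were plated onto compound in medium with 20 mM glucose (1% DMSO final) for 24 h, 37 °C, 5% CO2. Acid lysates were Tris-quenched, glucoamylase-digested (pH 5.3, 1 h, 37 °C) and read by Glucose-glo luminescence. IC50 came from Hill fits, as geometric mean of ≥2 runs.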

Sequence of hGYS2 enzyme (recombinant hGYS2/GN1 protein) (P54840 whole entry): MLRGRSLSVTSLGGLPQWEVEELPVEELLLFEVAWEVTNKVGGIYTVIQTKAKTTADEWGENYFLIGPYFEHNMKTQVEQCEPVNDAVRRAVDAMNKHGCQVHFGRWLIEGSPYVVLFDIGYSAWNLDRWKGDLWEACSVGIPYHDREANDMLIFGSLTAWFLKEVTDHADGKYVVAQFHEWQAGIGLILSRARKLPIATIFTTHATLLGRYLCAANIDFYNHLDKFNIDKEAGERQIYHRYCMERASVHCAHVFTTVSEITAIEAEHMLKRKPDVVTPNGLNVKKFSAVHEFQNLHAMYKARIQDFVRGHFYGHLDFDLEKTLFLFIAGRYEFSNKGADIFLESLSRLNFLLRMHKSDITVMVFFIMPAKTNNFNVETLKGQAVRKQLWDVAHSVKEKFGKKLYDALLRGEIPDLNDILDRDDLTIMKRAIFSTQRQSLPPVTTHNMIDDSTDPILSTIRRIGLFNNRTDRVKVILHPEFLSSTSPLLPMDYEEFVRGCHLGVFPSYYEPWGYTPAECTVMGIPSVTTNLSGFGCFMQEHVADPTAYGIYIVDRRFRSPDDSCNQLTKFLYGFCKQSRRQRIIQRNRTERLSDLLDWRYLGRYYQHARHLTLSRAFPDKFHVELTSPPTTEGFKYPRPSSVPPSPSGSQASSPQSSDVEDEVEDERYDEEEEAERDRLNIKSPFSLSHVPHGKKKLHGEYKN
Sequence of hGYS2 enzyme (recombinant hGYS2/GN1 protein) (P46976 whole entry partner): as the sequence (P46976 whole entry partner) above

Row | Structure (SMILES) | IC50 [1] | IC50 [2] | IC50 [3] | IC50 ([3]; Homo sapiens, HeLa, 24 h)
1 | CC(C(=O)N1C[C@H](F)C[C@H]1C(=O)N[C@@H](c1ccccc1)c1ccc(C2CC2)c(F)c1)n1cnc2ccccc21 (single isomer, unassigned) [Compound 810, (2S,4R)-1-[(2R) or (2S)-2-(1H-1,3-benzodiazol-1-yl)propanoyl]-N-[(S)-(4-cyclopropyl-3-fluorophenyl)(phenyl)methyl]-4-fluoropyrrolidine-2-carboxamide] | > 100 µM | 0.357 µM | 5.28 µM | 
2 | CC(C)c1ccc([C@@H](NC(=O)[C@@H]2C[C@@H](F)CN2C(=O)Cc2cnn[nH]2)c2ccccc2)cc1 [Compound 1, (2S,4R)-1-(2-(1H-1,2,3-triazol-5-yl)acetyl)-4-fluoro-N-((S)-(4-isopropylphenyl)(phenyl)methyl) pyrrolidine-2-carboxamide] | > 100 µM | 0.033 µM |  | 0.42 µM
3 | CC(=O)N(CCC(=O)N1C[C@H](F)C[C@H]1C(=O)N[C@@H](c1ccccc1)c1ccc(C(C)C)cc1)c1ccn(C)n1 [Compound 2, (2S,4R)-4-fluoro-1-{3-[N-(1-methyl-1H-pyrazol-3-yl)acetamido)propanoyl}-N-[(S)-phenyl[4-(propan-2-yl)phenyl]methyl]pyrrolidine-2-carboxamide] | > 100 µM | 0.059 µM |  | 1.09 µM
4 | Cc1nn(C)c(C)c1CC(=O)N1C[C@H](F)C[C@H]1C(=O)N[C@@H](c1ccccc1)c1ccc(C(C)C)cc1 [Compound 136, (2S,4R)-4-fluoro-N-[(S)-phenyl[4-(propan-2-yl)phenyl]methyl]-1-[2-(1,3,5-trimethyl-1H-pyrazol-4-yl)acetyl]pyrrolidine-2-carboxamide] | > 100 µM | 0.009 µM |  | 0.17 µM
5 | Cc1ccc2[nH]cc(CC(=O)N3C[C@H](F)C[C@H]3C(=O)N[C@@H](c3ccccc3)c3ccc(C(C)C)cc3)c2c1 [Compound 138, (2S,4R)-4-fluoro-1-[2-(5-methyl-1H-indol-3-yl)acetyl]-N-[(S)-phenyl[4-(propan-2-yl)phenyl]methyl]pyrrolidine-2-carboxamide] | > 100 µM | 0.012 µM |  | 0.27 µM
6 | CC(=O)N1C[C@H](C(=O)N2C[C@H](F)C[C@H]2C(=O)N[C@@H](c2ccccc2)c2ccc(C(C)C)cc2)[C@H]2OCC[C@H]21 [Compound 166, (2S,4R)-1-[(3aR,6S,6aR)-4-acetyl-hexahydro-2H-furo[3,2-b]pyrrole-6-carbonyl]-4-fluoro-N-[(S)-phenyl[4-(propan-2-yl)phenyl]methyl]pyrrolidine-2-carboxamide] | > 100 µM | 0.056 µM |  | 0.78 µM
7 | CC(=O)N1CCCC(C(=O)N2C[C@H](F)C[C@H]2C(=O)N[C@@H](c2ccccc2)c2ccc(C(C)C)cc2)C1C (stereo partly drawn) [Compound 178, (2S,4R)-1-(1-acetyl-2-methylpiperidine-3-carbonyl)-4-fluoro-N-[(S)-phenyl[4-(propan-2-yl)phenyl]methyl]pyrrolidine-2-carboxamide] | > 100 µM | 0.038 µM |  | 0.41 µM
8 | CC[C@@H]1CN(C(C)=O)C[C@@H]1C(=O)N1C[C@H](F)C[C@H]1C(=O)N[C@@H](c1ccccc1)c1ccc(C(C)C)cc1 [Compound 179, (2S,4R)-1-[(3R,4S)-1-acetyl-4-ethylpyrrolidine-3-carbonyl]-4-fluoro-N-[(S)-phenyl[4-(propan-2-yl)phenyl]methyl]pyrrolidine-2-carboxamide] | > 100 µM | 0.031 µM |  | 0.4 µM
9 | CC(=O)N1C[C@H]2CCC[C@@H](C(=O)N3C[C@H](F)C[C@H]3C(=O)N[C@@H](c3ccccc3)c3ccc(C(C)C)cc3)[C@H]2C1 [Compound 183, (2S,4R)-1-[(3aS,4R,7aS)-2-acetyl-octahydro-1H-isoindole-4-carbonyl]-4-fluoro-N-[(S)-phenyl[4-(propan-2-yl)phenyl]methyl]pyrrolidine-2-carboxamide] | > 100 µM | 0.041 µM |  | 0.93 µM
10 | CC(=O)N1CCC2(CCC(C(=O)N3C[C@H](F)C[C@H]3C(=O)N[C@@H](c3ccccc3)c3ccc(C(C)C)cc3)C2)CC1 (stereo partly drawn) [Compound 184, (2S,4R)-1-{8-acetyl-8-azaspiro[4.5]decane-2-carbonyl}-4-fluoro-N-[(S)-phenyl[4-(propan-2-yl)phenyl]methyl]pyrrolidine-2-carboxamide] | > 100 µM | 0.075 µM |  | 3.03 µM
11 | CC(C)c1ccc([C@@H](NC(=O)[C@@H]2C[C@@H](F)CN2C(=O)CNc2ncco2)c2ccccc2)cc1 [Compound 198, (2S,4R)-4-fluoro-1-{2-[(1,3-oxazol-2-yl)amino]acetyl}-N-[(S)-phenyl[4-(propan-2-yl)phenyl]methyl]pyrrolidine-2-carboxamide] | > 100 µM | 0.031 µM |  | 0.39 µM
12 | CC(C)c1ccc([C@@H](NC(=O)[C@@H]2C[C@@H](F)CN2C(=O)CN2CCOCC2=O)c2ccccc2)cc1 [Compound 219, (2S,4R)-4-fluoro-1-[2-(3-oxomorpholin-4-yl)acethyl]-N-[(S)-phenyl[4-(propan-2-yl)phenyl]methyl]pyrrolidine-2-carboxamide] | > 100 µM | 0.101 µM |  | 1.41 µM
13 | CC(=O)NCc1nnc(CC(=O)N2C[C@H](F)C[C@H]2C(=O)N[C@@H](c2ccccc2)c2ccc(C(C)C)cc2)o1 [Compound 239, (2S,4R)-1-{2-[5-(acetamidomethyl)-1,3,4-oxadiazol-2-yl]acetyl}-4-fluoro-N-[(S)-phenyl[4-(propan-2-yl)phenyl]methyl]pyrrolidine-2-carboxamide] | > 100 µM | 0.067 µM |  | 1.56 µM
14 | CC(C)c1ccc([C@@H](NC(=O)[C@@H]2C[C@@H](F)CN2C(=O)Cn2nncc2CN)c2ccccc2)cc1 [Compound 240, (2S,4R)-1-{2-[5-(aminomethyl)-1H-1,2,3-triazol-1-yl]acetyl}-4-fluoro-N-[(S)-phenyl[4-(propan-2-yl)phenyl]methyl]pyrrolidine-2-carboxamide] | > 100 µM | 0.06 µM |  | 2.09 µM

Next, values leading:

Row | IC50 [1] | IC50 [2] | IC50 [3] | IC50 ([3]; Homo sapiens, HeLa, 24 h) | Structure (SMILES)
15 | > 100 µM | 0.076 µM |  | 1.31 µM | CC(C)c1ccc([C@@H](NC(=O)[C@@H]2C[C@@H](F)CN2C(=O)Cc2nncn2C)c2ccccc2)cc1 (stereo in doubt) [Compound 227, (2RS,4R)-4-fluoro-1-[2-(4-methyl-4H-1,2,4-triazol-3-yl)acetyl]-N-[(S)-phenyl[4-(propan-2-yl)phenyl]methyl]pyrrolidine-2-carboxamide]
16 | > 100 µM | 0.034 µM |  | 0.33 µM | CC(C)c1ccc([C@@H](NC(=O)[C@@H]2C[C@@H](F)CN2C(=O)Cn2nccn2)c2ccccc2)cc1 [Compound 17, (2S,4R)-4-fluoro-N-[(S)-phenyl[4-(propan-2-yl)phenyl]methyl]-1-[2-(2H-1,2,3-triazol-2-yl)acetyl]pyrrolidine-2-carboxamide]
17 | > 100 µM | 0.027 µM |  | 0.47 µM | CC(C)c1ccc([C@@H](NC(=O)[C@@H]2C[C@@H](F)CN2C(=O)COc2cccnn2)c2ccccc2)cc1 [Compound 21, (2S,4R)-4-fluoro-N-[(S)-phenyl[4-(propan-2-yl)phenyl]methyl]-1-[2-(pyridazin-3-yloxy)acetyl]pyrrolidine-2-carboxamide]
18 | > 100 µM | 0.039 µM |  | 0.36 µM | CC(C)c1ccc([C@@H](NC(=O)[C@@H]2C[C@@H](F)CN2C(=O)Cc2ccn(C)n2)c2ccccc2)cc1 [Compound 49, (2S,4R)-4-fluoro-1-[2-(1-methyl-1H-pyrazol-3-yl)acetyl]-N-[(S)-phenyl[4-(propan-2-yl)phenyl]methyl]pyrrolidine-2-carboxamide]
19 | > 100 µM | 0.008 µM |  | 0.12 µM | CC(C)c1ccc([C@@H](NC(=O)[C@@H]2C[C@@H](F)CN2C(=O)Cn2cnc3ccccc32)c2ccccc2)cc1 [Compound 77, (2S,4R)-1-[2-(1H-1,3-benzodiazol-1-yl)acetyl]-4-fluoro-N-[(S)-phenyl[4-(propan-2-yl)phenyl]methyl]pyrrolidine-2-carboxamide]
20 | > 100 µM | 0.011 µM |  | 0.17 µM | Cc1cn(CC(=O)N2C[C@H](F)C[C@H]2C(=O)N[C@@H](c2ccccc2)c2ccc(C(C)C)cc2)c(=O)[nH]c1=O [Compound 126, (2S,4R)-4-fluoro-1-[2-(5-methyl-2,4-dioxo-1,2,3,4-tetrahydropyrimidin-1-yl)acetyl]-N-[(S)-phenyl[4-(propan-2-yl)phenyl]methyl]pyrrolidine-2-carboxamide]
21 | > 100 µM | 0.071 µM |  | 1.86 µM | CC(C)c1ccc([C@@H](NC(=O)[C@@H]2C[C@@H](F)CN2C(=O)Cn2cnnc2)c2ccccc2)cc1 [Compound 202, (2S,4R)-4-fluoro-N-[(S)-phenyl[4-(propan-2-yl)phenyl]methyl]-1-[2-(4H-1,2,4-triazol-4-yl)acetyl]pyrrolidine-2-carboxamide]
22 | > 100 µM | 0.058 µM |  | 0.81 µM | Cc1nn(CC(=O)N2C[C@H](F)C[C@H]2C(=O)N[C@@H](c2ccccc2)c2ccc(C(C)C)cc2)c(=O)o1 [Compound 236, (2S,4R)-4-fluoro-1-[2-(5-methyl-2-oxo-2,3-dihydro-1,3,4-oxadiazol-3-yl)acetyl]-N-[(S)-phenyl[4-(propan-2-yl)phenyl]methyl]pyrrolidine-2-carboxamide]
